This is an account of results in patent US10669272B2, “Substituted naphthyridinone compounds useful as T cell activators” (BRISTOL-MYERS SQUIBB COMPANY, priority 2018, dated 2020).

Like-named read-outs stand apart in the source and are kept apart here.

One test has as its target T1, human DGKα (Homo sapiens, UniProt P23743).
T1 construct: TVMV protease cleavage site (C); Hexa-His (C); made in house; host or cells: Sf9 insect cells (baculovirus, Bac-to-Bac)
Briefly: DGKα LIPGLO assay (extruded liposome substrate), in vitro DGK inhibition. Format: biochemical. Particulars: liposome (LIPGLO) assay; read-out: DGKa LIPGLO IC50.

Another test has as its target T2, human DGKζ (Homo sapiens, UniProt Q13574).
T2 construct: TVMV protease cleavage site (C); Hexa-His (C); made in house; host or cells: Sf9 insect cells (baculovirus, Bac-to-Bac)
Put plainly: DGKζ LIPGLO assay (extruded liposome substrate), in vitro DGK inhibition. The test is classed as biochemical. Particulars: liposome (LIPGLO) assay; read-out: DGKz LIPGLO IC50.

Test [1] concerns OT-1 CD8+ T cells with SIINFEKL-loaded MC38 tumor cells. Put plainly: Murine cytotoxic T lymphocyte assay (IFN-γ, OT-1 CTL with MC38 tumor cells). Particulars: Mus musculus, MC-38; read-out: msCTL INFg IC50. Format: cell-based, mouse. Summed up:
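IFN-γ was quantified by AlphaLISA in supernatants after 24 h co-culture at 37° C. Effectors were OT-1 CD8+ CTLs (5-day peptide/mIL2 expansion), exposed 1 h to DGK inhibitors before mixing 1:10 with MC38 tumor cells loaded 3 h with 1 μg/mL SIINFEKL peptide.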

The subject of another test is naïve human CD8 T cells. Put plainly: Human CD8 T cells IFN-γ assay.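 Note: Naïve human CD8 T cells stimulated with plate-bound anti-CD3 and soluble anti-CD28, IFN-γ in supernatant quantified by AlphaLISA and converted to pg/mL.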 Particulars: Homo sapiens, T-cell, 20 h, normalized to 3 μM reference compound with anti-CD3 plus anti-CD28 as 100% activation; read-out: HuCD8 INFG Normalized EC50. Format: cell-based.
Another test concerns Human venous whole blood. Briefly: Human whole blood IFN-γ assay.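 Note: blood from healthy donors exposed to compound for 1 h before stimulation with anti-CD3 and anti-CD28 at 1 µg/mL each, IFN-γ quantified in supernatant by AlphaLISA.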 The test is classed as cell-based. Particulars: Homo sapiens, human whole blood, normalized to 3 μM reference compound with anti-CD3 plus anti-CD28 as 100% activation, read-out: INFg Whole Blood Normalized Agonist EC50.

T2 sequence (Q13574 with tags, fused parts or gaps isoform Q13574-4): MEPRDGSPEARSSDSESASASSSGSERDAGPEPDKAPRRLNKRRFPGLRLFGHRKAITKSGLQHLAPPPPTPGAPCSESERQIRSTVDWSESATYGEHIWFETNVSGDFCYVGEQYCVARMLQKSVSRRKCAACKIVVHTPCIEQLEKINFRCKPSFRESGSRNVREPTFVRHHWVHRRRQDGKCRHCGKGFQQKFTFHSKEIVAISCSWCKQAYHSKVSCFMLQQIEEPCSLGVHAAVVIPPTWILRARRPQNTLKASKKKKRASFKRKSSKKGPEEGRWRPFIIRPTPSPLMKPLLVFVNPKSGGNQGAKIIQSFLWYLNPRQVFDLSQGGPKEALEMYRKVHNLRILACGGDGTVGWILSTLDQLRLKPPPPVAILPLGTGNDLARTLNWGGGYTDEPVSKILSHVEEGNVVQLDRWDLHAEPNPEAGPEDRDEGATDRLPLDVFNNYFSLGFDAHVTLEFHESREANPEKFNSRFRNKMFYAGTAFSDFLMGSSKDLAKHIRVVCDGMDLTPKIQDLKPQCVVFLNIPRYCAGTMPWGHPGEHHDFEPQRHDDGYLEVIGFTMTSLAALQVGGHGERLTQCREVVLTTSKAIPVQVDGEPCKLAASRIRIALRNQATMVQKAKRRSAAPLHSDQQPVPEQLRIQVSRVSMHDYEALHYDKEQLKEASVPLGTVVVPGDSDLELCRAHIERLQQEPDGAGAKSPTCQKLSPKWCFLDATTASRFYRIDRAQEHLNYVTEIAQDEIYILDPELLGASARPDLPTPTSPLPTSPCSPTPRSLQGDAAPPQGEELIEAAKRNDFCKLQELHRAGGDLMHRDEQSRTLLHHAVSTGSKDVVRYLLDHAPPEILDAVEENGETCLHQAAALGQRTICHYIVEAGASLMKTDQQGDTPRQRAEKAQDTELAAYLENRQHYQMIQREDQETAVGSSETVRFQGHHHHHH
T1 sequence (P23743 with tags, fused parts or gaps): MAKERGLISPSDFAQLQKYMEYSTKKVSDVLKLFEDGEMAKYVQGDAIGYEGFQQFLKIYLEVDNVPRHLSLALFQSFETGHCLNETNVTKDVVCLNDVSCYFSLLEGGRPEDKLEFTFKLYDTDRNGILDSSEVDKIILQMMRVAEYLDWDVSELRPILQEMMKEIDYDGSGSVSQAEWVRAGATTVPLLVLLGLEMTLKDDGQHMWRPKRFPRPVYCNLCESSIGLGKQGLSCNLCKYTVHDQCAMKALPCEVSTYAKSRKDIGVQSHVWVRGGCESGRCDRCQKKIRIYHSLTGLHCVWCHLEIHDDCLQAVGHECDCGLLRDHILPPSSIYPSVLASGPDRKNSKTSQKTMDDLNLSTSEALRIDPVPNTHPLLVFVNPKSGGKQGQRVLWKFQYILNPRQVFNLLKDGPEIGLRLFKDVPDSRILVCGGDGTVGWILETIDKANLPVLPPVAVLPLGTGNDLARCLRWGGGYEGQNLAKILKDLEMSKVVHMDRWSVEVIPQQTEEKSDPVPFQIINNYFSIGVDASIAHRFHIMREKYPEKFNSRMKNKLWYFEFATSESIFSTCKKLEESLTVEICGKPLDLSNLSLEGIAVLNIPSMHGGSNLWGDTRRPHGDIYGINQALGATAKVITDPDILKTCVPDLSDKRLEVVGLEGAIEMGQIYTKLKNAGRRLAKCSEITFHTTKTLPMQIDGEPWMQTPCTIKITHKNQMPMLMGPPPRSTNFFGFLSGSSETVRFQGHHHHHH
Description for Human venous whole blood: Human Whole Blood IFN-γ Assay
Human venous whole blood (22.5 μL per well), obtained from healthy donors, was pre-treated with compounds for one hour at 37° C. in a humidified 95% air/5% CO2 incubator. The blood was stimulated with 2.5 μL anti-human CD3 and anti-CD28 mAb at a final concentration of 1 μg/mL each for 24 hours at 37° C. IFN-γ in the supernatants was measured using AlphLISA kit (Cat # AL217).

For the molecule `CC[C@@H]1CN(c2c(Cl)c(=O)n(C)c3ccc(C#N)nc23)CCN1C(c1ccc(Cl)cc1)c1ccc(Cl)cc1` [Example 177, (R)-8-(4-(bis(4-chlorophenyl)methyl)-3-ethylpiperazin-1-yl)-7-chloro-5-methyl-6-oxo-5,6-dihydro-1,5-naphthyridine-2-carbonitrile], the values for the IC50 (on human DGKα; at human DGKζ; in test [1]) were 5500 nM, 2700 nM and 870 nM, respectively. In addition, the EC50 is 130 nM with naïve human CD8 T cells and 5000 nM with Human venous whole blood (24 h).

Regarding `CC[C@@H]1CN(c2c(C#N)c(=O)n(C)c3ccc(C#N)nc23)CCN1C(c1ccc(Cl)cc1)c1ccc(Cl)cc1` [Example 179, (R)-8-(4-(bis(4-chlorophenyl)methyl)-3-ethylpiperazin-1-yl)-5-methyl-6-oxo-5,6-dihydro-1,5-naphthyridine-2,7-dicarbonitrile], the IC50 on human DGKα stood at 880 nM; at human DGKζ, 880 nM; in test [1] it was 49 nM. Also, the EC50 with naïve human CD8 T cells is 52 nM; with Human venous whole blood (24 h), 1000 nM.

For the molecule `CC[C@@H]1CN(c2cc(=O)n(C)c3ccc(C#N)nc23)CCN1C(c1ccc(Cl)cc1)c1ccc(Cl)cc1` [Example 180, (R)-8-(4-(bis(4-chlorophenyl)methyl)-3-ethylpiperazin-1-yl)-5-methyl-6-oxo-5,6-dihydro-1,5-naphthyridine-2-carbonitrile], the half-inhibitory concentration (IC50) worked out at 4100 nM on human DGKα, 1500 nM at human DGKζ and 400 nM in test [1]. The EC50 in the test on naïve human CD8 T cells is 70 nM; with Human venous whole blood (24 h), 830 nM.

As for `CC(C)[C@@H]1CN(C(c2ccc(F)cc2)c2ccc(F)cc2)CCN1c1cc(=O)n(C)c2ccc(C#N)nc12` [Example 181, (R)-8-(4-(bis(4-fluorophenyl)methyl)-2-isopropylpiperazin-1-yl)-5-methyl-6-oxo-5,6-dihydro-1,5-naphthyridine-2-carbonitrile], the values for the IC50 (on human DGKα; at human DGKζ; in test [1]) were 240000 nM, 240000 nM and 10000 nM, respectively. Moreover, the EC50 with naïve human CD8 T cells is 10000 nM; in the test with Human venous whole blood (24 h), 20000 nM.

For `C[C@@H]1CN(c2cc(=O)n(C)c3ccc(C#N)nc23)[C@@H](C)CN1Cc1ccc(F)c(F)c1` [Example 291, 8-[(2S,5R)-4-[(3,4-difluorophenyl)methyl]-2,5-dimethylpiperazin-1-yl]-5-methyl-6-oxo-5,6-dihydro-1,5-naphthyridine-2-carbonitrile], the values for the IC50 (at human DGKα; at human DGKζ; in test [1]) were 600 nM, 1500 nM and 470 nM, respectively. The results for the EC50 with naïve human CD8 T cells and with Human venous whole blood (24 h) were 34 nM and 1300 nM, respectively.

`Cc1ccc(C(c2ccc(C)cc2)N2C[C@H](C)N(c3cc(=O)n(C)c4ccc(C#N)nc34)C[C@H]2C)cc1` [Example 301, 8-[(2S,5R)-4-[bis(4-methylphenyl)methyl]-2,5-dimethylpiperazin-1-yl]-5-methyl-6-oxo-5,6-dihydro-1,5-naphthyridine-2-carbonitrile]: the IC50 on human DGKα was found to be 1500 nM; on human DGKζ, 870 nM; in test [1], 72 nM. Also, the half-maximal effective concentration (EC50) with naïve human CD8 T cells was determined as 9.5 nM; in the test on Human venous whole blood, 520 nM.

Usually IC50 stands for the point on the concentration scale where inhibition reaches its midpoint. The EC50 is the concentration needed to bring the measured effect to its halfway point.
